Measured values from patent US20190255078A1, “TOPICAL COMPOSITIONS WITH STABLE SOLUBILIZED SELECTIVE RETINOIDS AND/OR TETRACYCLINE-CLASS ANTIBIOTICS” (BioPharmX, Inc., priority 2018, published 2019).
One block for each compound: values may come before it.

How the values were obtained:
[1] = cited from earlier work
[2] = test system: antibiotic-resistant P. acnes; conditions: clinical isolates of antibiotic-resistant P. acnes; cited from earlier work
[3] = Stability of tazarotene in solution with antioxidants and/or magnesium chloride (Example 3A); type: physicochemical; conditions: ethanol (anhydrous), sodium metabisulfite, sealed amber glass
[4] = as above; type: physicochemical
Method: Retinoids can undergo chemical degradation in solutions due to oxidation. However, many antioxidants are not effective in sufficiently stabilizing retinoids in a pharmaceutical composition. A study was performed in which samples consisting of 0.05% (w/w) tazarotene dissolved in 79.15% (w/w) ethanol (anhydrous), 0.6% hydroxypropyl cellulose HF (KLUCEL HF), 20% propylene glycol, and 0.20% (w/w) of an antioxidant were stored in a sealed amber glass container for 8 weeks at 40° C. For the tested composition with no antioxidant, the additional 0.20% was made up with ethanol (anhydrous).
Only one of the antioxidants improved the stability of tazarotene: propyl gallete, reducing the degradation from 5% to 1% over the 8-week period. In contrast, the antioxidant ascorbic acid increased the degradation from 5% to approximately 50% over the 8-week period.
Similarly, divalent cations such as magnesium, are also ineffective in stabilizing tazarotene. A mixture comprising ethanol, 0.6% magnesium chloride, and 0.05% tazarotene was stored in a sealed amber glass container for 13 weeks at 40° C.
A mixture comprising ethanol, 0.6% magnesium chloride, 0.2% sodium metabisulfite, and 0.05% tazarotene was stored in a sealed amber glass container for 13 weeks at 40° C. The tazarotene degraded by 3% over the 13-week period in comparison to 5% degradation for a mixture comprising ethanol and 0.05% tazarotene (and without magnesium chloride or an antioxidant) over the same period. […] Measurements for an additional composition comprising ethanol, 0.20% sodium metabisulfite, and 0.05% tazarotene (without the presence of magnesium chloride) were taken at 0, 1, 2, 4, and 8 weeks. Only the data at 0 and 8 weeks are presented in FIG. 3A for this composition. Data for this composition was not captured at 13 weeks.

[5] = Room temperature stability of tazarotene and minocycline in single and combination compositions (Example 5); type: physicochemical; conditions: 18 months
[6] = Stability at 40° C. of single and dual API compositions of Table 13-1 (Example 10); conditions: 6 months
Method: The exemplary compositions comprised tazarotene, minocycline, or a combination thereof. Each composition was stored at room temperature for 2 and 5 weeks in a sealed amber glass container at 40° C.

[7] = Solubility of tazarotene in solvents and solvent mixtures (Example 2); type: physicochemical
Excerpt: Tazarotene is known to have low solubility in many traditional solvent systems. […] However, compositions with ethanol as the only solvent are typically irritating to the skin, have a pungent smell, and leave the skin feeling dry. […] It has been discovered that that mixtures of ethanol and carboxylate esters have higher solubility of tazarotene than would be expected from mixtures of the components individually.
Tazarotene is desirably used in compositions at a concentration of 0.01% to 0.20% (w/w). […].
As shown in Table 5 and FIG. 2, the tazarotene solubility in selected binary and tertiary mixtures was even higher than the solubility of tazarotene in ethanol alone. […] Even small amounts of carboxylate esters can have unexpectedly large effects.
Thus, the tazarotene in selected ranges of binary mixtures was higher than the solubility of tazarotene in the individual components of the solvent mixture.

SMILES: COc1ccc(-c2ccc3cc(C(=O)O)ccc3c2)cc1C12CC3CC(CC(C3)C1)C2 [Adapalene, 6-[3-(1-adamantyl)-4-methoxy-phenyl]naphthalene-2-carboxylic acid]
- log P [1]: approximately 6

SMILES: C[C@H]1c2cccc(O)c2C(=O)C2=C(O)[C@]3(O)C(=O)C(C(N)=O)=C(O)[C@@H](N(C)C)[C@@H]3[C@@H](O)[C@@H]21 [doxycycline, (4S,4aR,5S,5aR,6R,12aS)-4-(dimethylamino)-3,5,10,12,12a-pentahydroxy-6-methyl-1,11-dioxo-1,4,4a,5,5a,6,11,12a-octahydrotetracene-2-carboxamide]
- Log P ([1]; free base form): about −0.02
- average MIC90 [2]: 8 µg/mL

SMILES: CC[C@H]1OC(=O)[C@H](C)[C@@H](O[C@H]2C[C@@](C)(OC)[C@@H](O)[C@H](C)O2)[C@H](C)[C@@H](O[C@@H]2O[C@H](C)C[C@H](N(C)C)[C@H]2O)[C@](C)(O)C[C@@H](C)C(=O)[C@H](C)[C@@H](O)[C@]1(C)O [erythromycin]
- average MIC90 [2]: ~512 µg/mL

- tazarotene degradation when stored for 12 months at room temperature [3]: less than 7%
- Reduction in Tazarotene concentration after 8 weeks at 40° C. (% degradation relative to baseline tazarotene) ([4]; 0.05% tazarotene in ethanol/20% propylene glycol/0.6% HPC, antioxidant: none): 5%
- Reduction in Tazarotene concentration after 8 weeks at 40° C. (% degradation relative to baseline tazarotene) ([4]; antioxidant: 0.20% BHT): 5%
- Reduction in Tazarotene concentration after 8 weeks at 40° C. (% degradation relative to baseline tazarotene) ([4]; antioxidant: 0.20% Dl-Alpha Tocopherol): 5%
- Reduction in Tazarotene concentration after 8 weeks at 40° C. (% degradation relative to baseline tazarotene) ([4]; antioxidant: 0.20% propyl gallete): 1%
- Reduction in Tazarotene concentration after 8 weeks at 40° C. (% degradation relative to baseline tazarotene) ([4]; antioxidant: 0.20% sodium metabisulfite (SMBS)): 8%
- Reduction in Tazarotene concentration after 8 weeks at 40° C. (% degradation relative to baseline tazarotene) ([4]; antioxidant: 0.20% sodium nitrate): 10%
- Reduction in Tazarotene concentration after 8 weeks at 40° C. (% degradation relative to baseline tazarotene) ([4]; antioxidant: 0.20% sodium sulfite): 10%
- Reduction in Tazarotene concentration after 8 weeks at 40° C. (% degradation relative to baseline tazarotene) ([4]; antioxidant: 0.20% tocopherol): 5%
- tazarotene degradation over 13 weeks at 40° C. ([4]; ethanol and 0.05% tazarotene, without magnesium chloride or antioxidant): 5%
- tazarotene degradation over 13 weeks at 40° C. ([4]; ethanol, 0.6% magnesium chloride, 0.05% tazarotene, sealed amber glass): 13%
- tazarotene degradation over 13 weeks at 40° C. ([4]; ethanol, 0.6% magnesium chloride, 0.2% sodium metabisulfite, 0.05% tazarotene): 3%
- stability when added in combination versus each drug alone ([5]; compositions of Table 9): more stable
- stability in compositions of Table 9 ([5]; sealed amber glass): stable after 18 months
- stability when added in combination versus alone ([6]; compositions of Table 13-1): more stable
- stability in single API and dual API compositions ([6]; compositions of Table 13-1 (FIGS. 8A-8B)): stable
- tazarotene solubility relative to solubility in ester alone ([7]; ethanol and at least one carboxylate ester, binary and tertiary mixtures): 2-5 times
- TAZAROTENE SOLUBILITY ([7]; ethanol and diisopropyl adipate 1:1 (W/W)): 39.0 mg/g
- TAZAROTENE SOLUBILITY ([7]; ethanol and diisopropyl adipate 9:1 (W/W)): 23.3 mg/g
- TAZAROTENE SOLUBILITY ([7]; ethanol and dimethyl succinate 20:80 (W/w)): 109.42 mg/g
- TAZAROTENE SOLUBILITY ([7]; ethanol and dimethyl succinate 40:60 (W/w)): 103.65 mg/g
- TAZAROTENE SOLUBILITY ([7]; ethanol and dimethyl succinate 60:40 (W/w)): 67.18 mg/g
- TAZAROTENE SOLUBILITY ([7]; ethanol and dimethyl succinate 80:20 (W/w)): 45.30 mg/g
- TAZAROTENE SOLUBILITY ([7]; ethanol and isopropyl myristate 1:1 (W/W)): 37.8 mg/g
- TAZAROTENE SOLUBILITY ([7]; ethanol and isopropyl myristate 9:1 (W/W)): 34.8 mg/g
- TAZAROTENE SOLUBILITY ([7]; ethanol and medium chain triglyceride 1:1 (W/W)): 38.6 mg/g
- TAZAROTENE SOLUBILITY ([7]; ethanol and medium chain triglyceride 9:1 (W/W)): 23.5 mg/g
- TAZAROTENE SOLUBILITY ([7]; ethanol and propyl acetate 20:80 (W/w)): 179.99 mg/g
- TAZAROTENE SOLUBILITY ([7]; ethanol and propyl acetate 40:60 (W/w)): 139.85 mg/g
- TAZAROTENE SOLUBILITY ([7]; ethanol and propyl acetate 60:40 (W/w)): 80.16 mg/g
- TAZAROTENE SOLUBILITY ([7]; ethanol and propyl acetate 80:20 (W/w)): 44.12 mg/g
- TAZAROTENE SOLUBILITY ([7]; ethanol and propylene glycol 1:1 (W/W)): 10.3 mg/g
- TAZAROTENE SOLUBILITY ([7]; ethanol and propylene glycol 4:1 (W/W)): 22.3 mg/g
- TAZAROTENE SOLUBILITY ([7]; ethanol, glycerol, and isopropyl myristate 7:2:1 (W/W)): 30.3 mg/g
- TAZAROTENE SOLUBILITY ([7]; ethanol, propylene glycol, and diisopropyl adipate 7:2:1 (W/W)): 24.9 mg/g
- TAZAROTENE SOLUBILITY ([7]; ethanol, propylene glycol, and dimethyl succinate 7:2:1 (W/W)): 30.1 mg/g
- TAZAROTENE SOLUBILITY ([7]; ethanol, propylene glycol, and isopropyl myristate 7:2:1 (W/W)): 32.3 mg/g
- TAZAROTENE SOLUBILITY ([7]; ethanol, propylene glycol, and medium chain triglycerides 7:2:1 (W/W)): 24.4 mg/g
- TAZAROTENE SOLUBILITY ([7]; ethanol, propylene glycol, and propyl acetate 7:2:1 (W/W)): 29.1 mg/g
- TAZAROTENE SOLUBILITY ([7]; in diisopropyl adipate): 1.21 mg/g
- TAZAROTENE SOLUBILITY ([7]; in dimethyl succinate): 63.18 mg/g
- TAZAROTENE SOLUBILITY ([7]; in isopropyl myristate): 0.75 mg/g
- TAZAROTENE SOLUBILITY ([7]; in medium chain triglycerides): 0.16 mg/g
- TAZAROTENE SOLUBILITY ([7]; in propyl acetate): 138.04 mg/g
- TAZAROTENE SOLUBILITY ([7]; in propylene glycol): 0.0054 mg/g
- TAZAROTENE SOLUBILITY ([7]; propylene glycol and diisopropyl adipate 2:0 (W/W)): 5.6 mg/g
- TAZAROTENE SOLUBILITY ([7]; propylene glycol and dimethyl succinate 2:1 (W/W)): 1.27 mg/g
- TAZAROTENE SOLUBILITY ([7]; propylene glycol and isopropyl myristate 2:1 (W/W)): 6.0 mg/g
- TAZAROTENE SOLUBILITY ([7]; propylene glycol and propyl acetate 2:1 (W/W)): 1.55 mg/g
- solubility for tazarotene in combined solvent systems ([7]; selected ratios of carboxylate esters to monohydric aliphatic alcohol): at least 25 mg/g
SMILES: CCOC(=O)c1ccc(C#Cc2ccc3c(c2)C(C)(C)CCS3)nc1 [tazarotene, ethyl 6-[2-(4,4-dimethyl-2,3-dihydrothiochromen-6-yl)ethynyl]pyridine-3-carboxylate]
- log P [1]: ~4.3
